In patent publication US20090076152A1, “Novel Compounds Active as Muscarinic Receptor Antagonists” (priority 2007, published 2009):

Target: T1, human muscarinic M3 receptor (Homo sapiens, UniProt P20309)
T1 construct: expressed in transfected cells
Experiment: hM3 β-Lac potency assay (NFAT-Betalactamase reporter in CHO-K1 cells)
Conditions: CHO cells recombinantly expressing human M3, NFAT β-lactamase reporter; inhibition of 80 nM carbamyl choline signal, 4 h; IC50 converted to Ki by Cheng-Prusoff; read-out: Cell based β-lactamase M3 Ki
Procedure: M3 potency was determined in CHO-K1 cells transfected with the NFAT-Betalactamase gene. CHO (Chinese Hamster Ovary) cells recombinantly expressing the human muscarinic M3 receptor were transfected with the NFAT_β-Lac_Zeo plasmid. Cells were grown in DMEM with Glutamax-1, supplemented with 25 mM HEPES(Life Technologies 32430-027), containing 10% FCS (Foetal Calf Serum; Sigma F-7524), […] Sodium pyruvate (Sigma S-8636), NEM (non-Essential Amino Acids; Invitrogen 11140-035) and 200 μg/ml Zeocin (Invitrogen R250-01).
Cells were harvested for assay when they reached 80-90% confluency using enzyme free cell Dissociation Solution (Life technologies 13151-014) incubated with the cells for 5 min at 37° C. in an atmosphere containing 5% CO2. Detached cells were collected in warmed growth media and centrifuged at 2000 rpm for 10 min, washed in PBS (Phosphate Buffered Saline; Life Technologies 14190-094) and centrifuged again as just described. The cells were re-suspended at 2×10^5 cells/ml in growth medium (composition as described above). 20 μl of this cell suspension was added to each well of a 384 well black clear bottomed plate (Greiner Bio One 781091-PFI). The assay buffer used was PBS supplemented with 0.05% Pluronic F-127 (Sigma 9003-11-6) and 2.5% DMSO. Muscarinic M3 receptor signalling was stimulated using 80 nM carbamyl choline (Aldrich N240-9) incubated with the cells for 4 h at 37° C./5% CO2 and monitored at the end of the incubation period using a Tecan SpectraFluor+ plate reader (λ—excitation 405 nm, emission 450 nm and 503 nm). M3 receptor antagonists under test were added to the assay at the beginning of the 4 h incubation period and compound activity measured as the concentration dependent inhibition of the carbamyl choline induced signal. Inhibition curves were plotted and IC50 values generated using a 4-parameter sigmoid fit and converted to Ki values using the Cheng-Prusoff correction and the KD value for carbamyl choline in the assay.

T1 sequence (P20309 whole entry): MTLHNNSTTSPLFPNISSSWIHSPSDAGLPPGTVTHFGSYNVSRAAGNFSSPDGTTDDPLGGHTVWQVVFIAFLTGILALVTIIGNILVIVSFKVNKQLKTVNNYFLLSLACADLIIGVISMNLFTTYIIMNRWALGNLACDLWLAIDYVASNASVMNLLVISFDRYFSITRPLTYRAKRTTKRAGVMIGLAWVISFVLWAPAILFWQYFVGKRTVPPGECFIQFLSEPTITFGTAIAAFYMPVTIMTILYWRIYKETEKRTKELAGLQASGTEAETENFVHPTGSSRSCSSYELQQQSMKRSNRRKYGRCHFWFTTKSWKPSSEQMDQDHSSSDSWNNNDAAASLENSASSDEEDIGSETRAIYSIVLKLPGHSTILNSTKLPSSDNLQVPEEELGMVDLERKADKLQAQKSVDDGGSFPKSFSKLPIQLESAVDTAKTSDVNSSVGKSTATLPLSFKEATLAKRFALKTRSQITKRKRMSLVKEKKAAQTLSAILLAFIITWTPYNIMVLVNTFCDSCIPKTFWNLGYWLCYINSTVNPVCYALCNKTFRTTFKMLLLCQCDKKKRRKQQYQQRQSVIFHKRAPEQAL

Compound | Ki [nM]
CC(C)N(CC[C@H](c1ccccc1)c1cc(CCOc2ccc(CCNC(=O)C3CCCC3)cc2)ccc1O)C(C)C [Example 3, Cyclopentanecarboxylic acid [2-(4-{2-[3-((1R)-3-diisopropylamino-1-phenyl-propyl)-4-hydroxy-phenyl]-ethoxy}-phenyl)-ethyl]-amide] | 3.59
CC(C)N(CC[C@H](c1ccccc1)c1cc(CCOc2ccc(CCNC(=O)CC3CC3)cc2)ccc1O)C(C)C [Example 4] | 1.19
CC(C)N(CC[C@H](c1ccccc1)c1cc(CCOc2ccc(CCNC(=O)[C@]34C[C@H]5C[C@H](C[C@H](C5)C3)C4)cc2)ccc1O)C(C)C [Example 6, (3S,5S,7S)-N-{2-[4-(2-{3-[(1R)-3-(diisopropylamino)-1-phenylpropyl]-4-hydroxyphenyl}ethoxy)phenyl]ethyl}adamantane-1-carboxamide] | 4.99
CC(C)N(CC[C@H](c1ccccc1)c1cc(CCOc2ccc(CCN(C)C)cc2)ccc1O)C(C)C [Example 8, 2-((1R)-3-Diisopropylamino-1-phenyl-propyl)-4-{2-[4-(2-dimethylamino-ethyl)-phenoxy]-ethyl}-phenol] | 1.4
CC(C)N(CC[C@H](c1ccccc1)c1cc(CCOc2ccc(CCNCc3ccccc3)cc2)ccc1O)C(C)C [Example 9, 4-{2-[4-(2-Benzylamino-ethyl)-phenoxy]-ethyl}-2-((1R)-3-diisopropylamino-1-phenyl-propyl)-phenol] | 0.785
CC(C)N(CC[C@H](c1ccccc1)c1cc(CCOc2ccc(CCNCc3cccc(Cl)c3)cc2)ccc1O)C(C)C [Example 10, 4-(2-{4-[2-(3-Chloro-benzylamino)-ethyl]-phenoxy}-ethyl)-2-((1R)-3-diisopropylamino-1-phenyl-propyl)-phenol] | 7.73
CC(C)N(CC[C@H](c1ccccc1)c1cc(CCOc2ccc(CCNC3CCCCC3)cc2)ccc1O)C(C)C [Example 11, 4-{2-[4-(2-Cyclohexylamino-ethyl)-phenoxy]-ethyl}-2-((1R)-3-diisopropylamino-1-phenyl-propyl)-phenol] | 6.06

Results, then the compound that gave them:

Ki [nM] | Compound
0.512 | CC(C)N(CC[C@H](c1ccccc1)c1cc(CCOc2ccc(CCNC(=O)c3ccc(O)c(Cl)c3)cc2)ccc1O)C(C)C [Example 1, 3-Chloro-N-[2-(4-{2-[3-((1R)-3-diisopropylamino-1-phenyl-propyl)-4-hydroxy-phenyl]-ethoxy}-phenyl)-ethyl]-4-hydroxy-benzamide]
1.7 | CC(C)N(CC[C@H](c1ccccc1)c1cc(CCOc2ccc(CCNC(=O)Cc3ccc(O)c(Cl)c3)cc2)ccc1O)C(C)C [Example 2, 2-(3-Chloro-4-hydroxy-phenyl)-N-[2-(4-{2-[3-((1R)-3-diisopropylamino-1-phenyl-propyl)-4-hydroxy-phenyl]-ethoxy}-phenyl)-ethyl]-acetamide]
5.36 | CC(C)N(CC[C@H](c1ccccc1)c1cc(CCOc2ccc(CCNC(=O)c3ccc(O)c(F)c3)cc2)ccc1O)C(C)C [Example 5, N-[2-(4-{2-[3-((1R)-3-Diisopropylamino-1-phenyl-propyl)-4-hydroxy-phenyl]-ethoxy}-phenyl)-ethyl]-3-fluoro-4-hydroxy-benzamide]
0.727 | CC(C)N(CC[C@H](c1ccccc1)c1cc(CCOc2ccc(CCNC(=O)c3ccc(O)cc3Cl)cc2)ccc1O)C(C)C [Example 7, 2-Chloro-N-[2-(4-{2-[3-((1R)-3-diisopropylamino-1-phenyl-propyl)-4-hydroxy-phenyl]-ethoxy}-phenyl)-ethyl]-4-hydroxy-benzamide]
> 12.5 | CC(C)N(CC[C@H](c1ccccc1)c1cc(CCOc2ccc(CCNCc3ccc(O)c(Cl)c3)cc2)ccc1O)C(C)C [Example 12, 2-chloro-4-[({2-[4-(2-{3-[(1R)-3-(diisopropylamino)-1-phenylpropyl]-4-hydroxyphenyl}ethoxy)phenyl]ethyl}amino)methyl]phenol]
